Laboratory results reported in patent publication US11090319B2, “Therapeutic uses of pharmaceutical compositions comprising cyclic boronic acid ester derivatives” (Melinta Subsidiary Corp., priority 2010, dated 2021).
Like-named read-outs stand apart in the source and are kept apart here.

Legend:
[1] = system: strains expressing class A ESBLs; format: cell-based; details: tigemonam at 4 μg/mL; for MPC4 TEM-10 EC1009: strain EC1009 TEM-10; for MPC4 CTX-M-14 KP1005: strain KP1005 CTX-M-14; for MPC4 CTX-M-15 KP1009: strain KP1009 CTX-M-15; for MPC4 SHV-12 KP1010: strain KP1010 SHV-12; for MPC4 SHV-18 KP1012: strain KP1012 SHV-18; for MPC4 TEM-10 ec302: strain ec302 TEM-10; for MPC4 TEM-26 ec304: strain ec304 TEM-26; for MPC4 SHV-5 ec308: strain ec308 SHV-5
Description: Selected β-lactamase inhibitors were also tested for their ability to potentiate the monobactam tigemonam.

[2] = system: strains expressing KPC alone or in combination with additional beta-lactamases; assay: microbe, parasite or virus in culture; format: cell-based

Compound: N[C@@H](C(=O)N[C@H]1CC[C@@H](CC(=O)O)OB1O)c1ccccc1 [Compound 9]
- MPC4 TEM-10 EC1009 [1]: Z (MPC@4 of greater than 10 μg/mL)
- MPC4 CTX-M-14 KP1005 [1]: Z (MPC@4 of greater than 10 μg/mL)
- MPC4 CTX-M-15 KP1009 [1]: Z (MPC@4 of greater than 10 μg/mL)
- MPC4 SHV-12 KP1010 [1]: Z (MPC@4 of greater than 10 μg/mL)
- MPC4 SHV-18 KP1012 [1]: Z (MPC@4 of greater than 10 μg/mL)
- MPC4 TEM-10 ec302 [1]: Z (MPC@4 of greater than 10 μg/mL)
- MPC4 TEM-26 ec304 [1]: Z (MPC@4 of greater than 10 μg/mL)
- MPC4 SHV-5 ec308 [1]: Z (MPC@4 of greater than 10 μg/mL)

Compound: O=C(O)C[C@@H]1CC[C@H](NC(=O)NCc2ccccc2)B(O)O1 [Compound 18]
- MPC4 TEM-10 EC1009 [1]: X (MPC@4 of less than 2 μg/mL)
- MPC4 CTX-M-14 KP1005 [1]: X (MPC@4 of less than 2 μg/mL)
- MPC4 CTX-M-15 KP1009 [1]: X (MPC@4 of less than 2 μg/mL)
- MPC4 SHV-12 KP1010 [1]: X (MPC@4 of less than 2 μg/mL)
- MPC4 SHV-18 KP1012 [1]: X (MPC@4 of less than 2 μg/mL)
- MPC4 TEM-10 ec302 [1]: Y (MPC@4 of 2 μg/mL to 10 μg/mL)
- MPC4 TEM-26 ec304 [1]: Y (MPC@4 of 2 μg/mL to 10 μg/mL)
- MPC4 SHV-5 ec308 [1]: Y (MPC@4 of 2 μg/mL to 10 μg/mL)

Compound: O=C(O)CC1C=CC[C@H](NC(=O)Cc2cccs2)B(O)O1 (stereo partly drawn) [Compound 64, 2-((3R)-2-hydroxy-3-(2-(thiophen-2-yl)acetamido)-2,3,4,7-tetrahydro-1,2-oxaborepin-7-yl)acetic acid]
- MPC4 TEM-10 EC1009 [1]: Y (MPC@4 of 2 μg/mL to 10 μg/mL)
- MPC4 CTX-M-14 KP1005 [1]: Z (MPC@4 of greater than 10 μg/mL)
- MPC4 CTX-M-15 KP1009 [1]: Y (MPC@4 of 2 μg/mL to 10 μg/mL)
- MPC4 SHV-12 KP1010 [1]: X (MPC@4 of less than 2 μg/mL)
- MPC4 SHV-18 KP1012 [1]: Y (MPC@4 of 2 μg/mL to 10 μg/mL)
- MPC4 TEM-10 ec302 [1]: Z (MPC@4 of greater than 10 μg/mL)
- MPC4 TEM-26 ec304 [1]: Z (MPC@4 of greater than 10 μg/mL)
- MPC4 SHV-5 ec308 [1]: Y (MPC@4 of 2 μg/mL to 10 μg/mL)

Compound: O=C(O)C[C@@H]1C=CC[C@H](NC(=O)Cc2cccs2)B(O)O1 [Compound 67, 2-((3R,7R)-2-hydroxy-3-(2-(thiophen-2-yl)acetamido)-2,3,4,7-tetrahydro-1,2-oxaborepin-7-yl)acetic acid]
- MPC4 TEM-10 EC1009 [1]: Z (MPC@4 of greater than 10 μg/mL)
- MPC4 CTX-M-14 KP1005 [1]: Z (MPC@4 of greater than 10 μg/mL)
- MPC4 CTX-M-15 KP1009 [1]: Y (MPC@4 of 2 μg/mL to 10 μg/mL)
- MPC4 SHV-12 KP1010 [1]: Y (MPC@4 of 2 μg/mL to 10 μg/mL)
- MPC4 SHV-18 KP1012 [1]: Y (MPC@4 of 2 μg/mL to 10 μg/mL)
- MPC4 TEM-10 ec302 [1]: Z (MPC@4 of greater than 10 μg/mL)
- MPC4 TEM-26 ec304 [1]: Z (MPC@4 of greater than 10 μg/mL)
- MPC4 SHV-5 ec308 [1]: Z (MPC@4 of greater than 10 μg/mL)

Compound: C[C@@H](O)[C@H]1C(=O)N2C(C(=O)O)=C(S[C@@H]3CN[C@H](CNS(N)(=O)=O)C3)[C@H](C)[C@H]12 [Doripenem]
- MIC ([2]; Enterobacter cloacae, Enterobacter cloacae ECL1058, KPC-3, SHV-11, TEM-1, Compound 5 0 mg/L, read-out: MIC of Doripenem): > 4 µg/mL
- MIC ([2]; Enterobacter cloacae, Enterobacter cloacae ECL1059, KPC-3, SHV-12, TEM-1, Compound 5 0 mg/L, read-out: MIC of Doripenem): 0.5 to 4 µg/mL
- MIC ([2]; Escherichia coli, Escherichia coli EC1007, KPC-3, Compound 5 0 mg/L, read-out: MIC of Doripenem): 0.5 to 4 µg/mL
- MIC ([2]; Klebsiella oxytoca, Klebsiella oxytoca KX1017, KPC-2, OXA-2, SHV-30, Compound 5 0 mg/L, read-out: MIC of Doripenem): 0.5 to 4 µg/mL
- MIC ([2]; Klebsiella oxytoca, Klebsiella oxytoca KX1018, KPC-2, SHV-40, OXY-1, Compound 5 0 mg/L, read-out: MIC of Doripenem): 0.5 to 4 µg/mL
- MIC ([2]; Klebsiella oxytoca, Klebsiella oxytoca KX1019, KPC-2 OXA-2, Compound 5 0 mg/L, read-out: MIC of Doripenem): 0.5 to 4 µg/mL
- MIC ([2]; Klebsiella pneumoniae, Klebsiella pneumoniae KP 1004, KPC-2, Compound 5 0 mg/L, read-out: MIC of Doripenem): 0.5 to 4 µg/mL
- MIC ([2]; Klebsiella pneumoniae, Klebsiella pneumoniae KP 1008, KPC-2, Compound 5 0 mg/L, read-out: MIC of Doripenem): 0.5 to 4 µg/mL
- MIC ([2]; Klebsiella pneumoniae, Klebsiella pneumoniae KP1082, KPC-2 SHV-1, Compound 5 0 mg/L, read-out: MIC of Doripenem): 0.5 to 4 µg/mL
- MIC ([2]; Klebsiella pneumoniae, Klebsiella pneumoniae KP1083, KPC-3, SHV-1, TEM-1, Compound 5 0 mg/L, read-out: MIC of Doripenem): > 4 µg/mL
- MIC ([2]; Klebsiella pneumoniae, Klebsiella pneumoniae KP1084, KPC-3, SHV-11, TEM-1, Compound 5 0 mg/L, read-out: MIC of Doripenem): > 4 µg/mL
- MIC ([2]; Klebsiella pneumoniae, Klebsiella pneumoniae KP 1087, KPC-2, CTX-M-15, SHV-11, TEM-1, Compound 5 0 mg/L, read-out: MIC of Doripenem): > 4 µg/mL
- MIC ([2]; Klebsiella pneumoniae, Klebsiella pneumoniae KP1088, KPC-3, SHV-11, TEM-1, Compound 5 0 mg/L, read-out: MIC of Doripenem): 0.5 to 4 µg/mL

Compound: C[C@@H](O)[C@H]1C(=O)N2C(C(=O)O)=C(S[C@@H]3CN[C@H](C(=O)Nc4cccc(C(=O)O)c4)C3)[C@H](C)[C@H]12 [Ertapenem]
- MIC ([2]; Enterobacter cloacae, Enterobacter cloacae ECL1058, KPC-3, SHV-11, TEM-1, Compound 5 0 mg/L, read-out: MIC of Ertapenem): > 4 µg/mL
- MIC ([2]; Enterobacter cloacae, Enterobacter cloacae ECL1059, KPC-3, SHV-12, TEM-1, Compound 5 0 mg/L, read-out: MIC of Ertapenem): 0.5 to 4 µg/mL
- MIC ([2]; Escherichia coli, Escherichia coli EC1007, KPC-3, Compound 5 0 mg/L, read-out: MIC of Ertapenem): > 4 µg/mL
- MIC ([2]; Klebsiella oxytoca, Klebsiella oxytoca KX1017, KPC-2, OXA-2, SHV-30, Compound 5 0 mg/L, read-out: MIC of Ertapenem): > 4 µg/mL
- MIC ([2]; Klebsiella oxytoca, Klebsiella oxytoca KX1018, KPC-2, SHV-40, OXY-1, Compound 5 0 mg/L, read-out: MIC of Ertapenem): > 4 µg/mL
- MIC ([2]; Klebsiella oxytoca, Klebsiella oxytoca KX1019, KPC-2 OXA-2, Compound 5 0 mg/L, read-out: MIC of Ertapenem): > 4 µg/mL
- MIC ([2]; Klebsiella pneumoniae, Klebsiella pneumoniae KP 1004, KPC-2, Compound 5 0 mg/L, read-out: MIC of Ertapenem): > 4 µg/mL
- MIC ([2]; Klebsiella pneumoniae, Klebsiella pneumoniae KP 1008, KPC-2, Compound 5 0 mg/L, read-out: MIC of Ertapenem): > 4 µg/mL
- MIC ([2]; Klebsiella pneumoniae, Klebsiella pneumoniae KP1082, KPC-2 SHV-1, Compound 5 0 mg/L, read-out: MIC of Ertapenem): 0.5 to 4 µg/mL
- MIC ([2]; Klebsiella pneumoniae, Klebsiella pneumoniae KP1083, KPC-3, SHV-1, TEM-1, Compound 5 0 mg/L, read-out: MIC of Ertapenem): > 4 µg/mL
- MIC ([2]; Klebsiella pneumoniae, Klebsiella pneumoniae KP1084, KPC-3, SHV-11, TEM-1, Compound 5 0 mg/L, read-out: MIC of Ertapenem): > 4 µg/mL
- MIC ([2]; Klebsiella pneumoniae, Klebsiella pneumoniae KP 1087, KPC-2, CTX-M-15, SHV-11, TEM-1, Compound 5 0 mg/L, read-out: MIC of Ertapenem): > 4 µg/mL
- MIC ([2]; Klebsiella pneumoniae, Klebsiella pneumoniae KP1088, KPC-3, SHV-11, TEM-1, Compound 5 0 mg/L, read-out: MIC of Ertapenem): > 4 µg/mL

Compound: C[C@@H](O)[C@H]1C(=O)N2C(C(=O)O)=C(SCCN=CN)C[C@H]12 [Imipenem]
- MIC ([2]; Escherichia coli, read-out: MIC of Imipenem): > 4 µg/mL

Compound: C[C@@H](O)[C@H]1C(=O)N2C(C(=O)O)=C(S[C@@H]3CN[C@H](C(=O)N(C)C)C3)[C@H](C)[C@H]12 [Meropenem]
- MIC ([2]; Enterobacter cloacae, read-out: MIC of Meropenem, Enterobacter cloacae ECL1058, KPC-3, SHV-11, TEM-1, Compound 5 0 mg/L): > 4 µg/mL
- MIC ([2]; Enterobacter cloacae, read-out: MIC of Meropenem, Enterobacter cloacae ECL1059, KPC-3, SHV-12, TEM-1, Compound 5 0 mg/L): 0.5 to 4 µg/mL
- MIC ([2]; Escherichia coli, read-out: MIC of Meropenem, Escherichia coli EC1007, KPC-3, Compound 5 0 mg/L): 0.5 to 4 µg/mL
- MIC ([2]; Klebsiella oxytoca, read-out: MIC of Meropenem, Klebsiella oxytoca KX1017, KPC-2, OXA-2, SHV-30, Compound 5 0 mg/L): 0.5 to 4 µg/mL
- MIC ([2]; Klebsiella oxytoca, read-out: MIC of Meropenem, Klebsiella oxytoca KX1018, KPC-2, SHV-40, OXY-1, Compound 5 0 mg/L): 0.5 to 4 µg/mL
- MIC ([2]; Klebsiella oxytoca, read-out: MIC of Meropenem, Klebsiella oxytoca KX1019, KPC-2 OXA-2, Compound 5 0 mg/L): 0.5 to 4 µg/mL
- MIC ([2]; Klebsiella pneumoniae, read-out: MIC of Meropenem, Klebsiella pneumoniae KP 1004, KP C-2, Compound 5 0 mg/L): > 4 µg/mL
- MIC ([2]; Klebsiella pneumoniae, read-out: MIC of Meropenem, Klebsiella pneumoniae KP 1008, KPC-2, Compound 5 0 mg/L): 0.5 to 4 µg/mL
- MIC ([2]; Klebsiella pneumoniae, read-out: MIC of Meropenem, Klebsiella pneumoniae KP1082, KPC-2 SHV-1, Compound 5 0 mg/L): 0.5 to 4 µg/mL
- MIC ([2]; Klebsiella pneumoniae, read-out: MIC of Meropenem, Klebsiella pneumoniae KP1083, KPC-3, SHV-1, TEM-1, Compound 5 0 mg/L): > 4 µg/mL
- MIC ([2]; Klebsiella pneumoniae, read-out: MIC of Meropenem, Klebsiella pneumoniae KP1084, KPC-3, SHV-11, TEM-1, Compound 5 0 mg/L): > 4 µg/mL
- MIC ([2]; Klebsiella pneumoniae, read-out: MIC of Meropenem, Klebsiella pneumoniae KP 1087, KPC-2, CTX-M-15, SHV-11, TEM-1, Compound 5 0 mg/L): > 4 µg/mL
- MIC ([2]; Klebsiella pneumoniae, read-out: MIC of Meropenem, Klebsiella pneumoniae KP1088, KPC-3, SHV-11, TEM-1, Compound 5 0 mg/L): > 4 µg/mL
